Target: human, KCNT1 (Homo sapiens (Human), UniProt Q5JUK3)
Experiment: FLIPR Tl/K Flux Assay
Type: cell-based
Settings: HEK293 cells stably expressing human KCNT1; Tl+ flux stimulated with EC80 of agonist Loxapine
How it was run: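 Inhibition values come from a Hill-equation fit of % inhibition versus log concentration, using normalized fluorescence (Fmax/Fmin) over a 160 s read. The read followed stimulation with Tl+ plus EC80 agonist loxapine after 30 min compound pre-incubation at 25 °C. Cells were KCNT1-expressing HEK293, dye-loaded 1 h in pH 7.4 HEPES/HBSS with 5 mM probenecid.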

Sequence of human, KCNT1 (Q5JUK3 whole entry): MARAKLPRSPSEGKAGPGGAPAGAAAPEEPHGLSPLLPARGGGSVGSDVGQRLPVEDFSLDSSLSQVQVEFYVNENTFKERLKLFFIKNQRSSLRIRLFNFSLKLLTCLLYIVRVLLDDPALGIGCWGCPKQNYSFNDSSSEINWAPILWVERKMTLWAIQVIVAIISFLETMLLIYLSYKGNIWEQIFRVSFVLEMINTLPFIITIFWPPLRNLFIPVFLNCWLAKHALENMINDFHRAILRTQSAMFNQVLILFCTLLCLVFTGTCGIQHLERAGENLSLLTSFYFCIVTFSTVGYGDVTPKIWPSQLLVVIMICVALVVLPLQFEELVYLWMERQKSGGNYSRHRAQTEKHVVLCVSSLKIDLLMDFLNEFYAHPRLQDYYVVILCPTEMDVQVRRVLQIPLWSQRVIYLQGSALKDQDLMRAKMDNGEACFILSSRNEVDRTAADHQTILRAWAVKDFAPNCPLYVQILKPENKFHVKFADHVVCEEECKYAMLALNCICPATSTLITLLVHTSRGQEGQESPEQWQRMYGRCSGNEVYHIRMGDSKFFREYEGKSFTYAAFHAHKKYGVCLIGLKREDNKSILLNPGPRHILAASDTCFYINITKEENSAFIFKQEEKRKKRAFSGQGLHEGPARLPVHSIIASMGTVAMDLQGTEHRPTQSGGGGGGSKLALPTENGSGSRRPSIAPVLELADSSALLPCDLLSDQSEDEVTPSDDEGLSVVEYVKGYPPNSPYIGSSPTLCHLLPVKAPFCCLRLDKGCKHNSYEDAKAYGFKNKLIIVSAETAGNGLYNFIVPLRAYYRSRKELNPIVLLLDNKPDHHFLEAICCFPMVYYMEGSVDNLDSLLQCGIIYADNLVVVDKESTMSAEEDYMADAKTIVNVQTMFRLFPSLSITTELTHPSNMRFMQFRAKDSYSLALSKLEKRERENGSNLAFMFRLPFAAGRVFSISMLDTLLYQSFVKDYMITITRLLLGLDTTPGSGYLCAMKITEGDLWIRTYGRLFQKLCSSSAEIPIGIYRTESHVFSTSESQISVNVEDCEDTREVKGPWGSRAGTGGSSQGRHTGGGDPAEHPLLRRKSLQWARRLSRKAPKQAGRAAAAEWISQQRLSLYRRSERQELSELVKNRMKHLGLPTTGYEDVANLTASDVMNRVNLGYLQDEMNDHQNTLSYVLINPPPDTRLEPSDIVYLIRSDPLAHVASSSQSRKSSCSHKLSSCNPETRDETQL

SMILES | IC50 [nM]
Cc1cnc(C(F)(F)F)cc1-n1cc2c(n1)CCC[C@@H]2NC(=O)c1cc(C(F)(F)F)nn1C [Compound I-445a] | < 250
Cc1nc(C(F)(F)F)oc1C(=O)N[C@H]1CCCn2nc(-c3ccnc(C(F)(F)F)c3)nc21 [Compound I-216a, (S)-4-Methyl-2-(trifluoromethyl)-N-(2-(2-(trifluoromethyl)pyridin-4-yl)-5,6,7,8-tetrahydro-[1,2,4]triazolo[1,5-a]pyridin-8-yl)oxazole-5-carboxamide] | < 250
Cn1nc(C(F)(F)F)nc1C(=O)N[C@H]1CCn2nc(-c3cc(C(F)(F)F)ncc3Cl)cc21 [Compound I-142a, (S)-N-(2-(5-Chloro-2-(trifluoromethyl)pyridin-4-yl)-5,6-dihydro-4H-pyrrolo[1,2-b]pyrazol-4-yl)-1-methyl-3-(trifluoromethyl)-1H-1,2,4-triazole-5-carboxamide] | < 250
Cn1nc(C(F)(F)F)cc1C(=O)N[C@@H]1CCc2nn(-c3ccnc(OC(F)(F)F)c3)cc21 [Compound I-73b] | 500 to 1000
Cn1nc(C(F)(F)F)cc1C(=O)N[C@H]1CCCn2nc(-c3nnc(C(F)(F)F)o3)cc21 [Compound I-316a, (S)-1-Methyl-3-(trifluoromethyl)-N-(2-(5-(trifluoromethyl)-1,3,4-oxadiazol-2-yl)-4,5,6,7-tetrahydropyrazolo[1,5-a]pyridin-4-yl)-1H-pyrazole-5-carboxamide] | 500 to 1000
N#Cc1cccc(C(=O)NC2CCCCC3NC(c4ccnc(C(F)(F)F)c4)=NC23)c1 (stereo not shown) [Compound I-463] | > 1000
Cn1nc(C(F)(F)F)cc1C(=O)N[C@@H]1CCCc2ncc(-c3ccnc(C(F)(F)F)c3)cc21 [Compound I-383b] | > 1000
O=C(N[C@@H]1CCCc2nc(-c3ccnc(C4CC4)c3)oc21)c1cncc(C(F)(F)F)n1 [Compound I-509b] | > 1000
Cc1nn(C(F)(F)F)cc1C(=O)N[C@H]1CCCc2oc(-c3ccnc(C(F)(F)F)c3)nc21 [Compound I-557a, (S)-3-Methyl-1-(trifluoromethyl)-N-(2-(2-(trifluoromethyl)pyridin-4-yl)-4,5,6,7-tetrahydrobenzo[d]oxazol-4-yl)-1H-pyrazole-4-carboxamide] | < 250
Cn1nc(C(F)(F)F)cc1C(=O)N[C@H]1CCCn2nc(-c3cnc(C(F)(F)F)s3)cc21 [Compound I-41a, (S)-1-Methyl-3-(trifluoromethyl)-N-(2-(2-(trifluoromethyl)thiazol-5-yl)-4,5,6,7-tetrahydropyrazolo[1,5-a]pyridin-4-yl)-1H-pyrazole-5-carboxamide] | < 250
O=C(N[C@H]1CCCc2nc(-c3cc(C4CC4)ncc3F)oc21)c1cc(Cl)cc(Cl)c1 [Compound I-157a, (S)-3,5-Dichloro-N-(2-(2-cyclopropyl-5-fluoropyridin-4-yl)-4,5,6,7-tetrahydrobenzo[d]oxazol-7-yl)benzamide] | < 250
Cn1nc(C(F)(F)F)cc1C(=O)N[C@H]1CCc2nn(-c3ccnc(OC(F)(F)F)c3)cc21 [Compound I-73a] | < 250
O=C(N[C@@H]1CCc2nn(-c3ccnc(C(F)(F)F)c3)cc21)c1cc(Cl)cc(Cl)c1 [Compound I-99b] | 500 to 1000
Cn1nc(C(F)(F)F)nc1C(=O)N[C@@H]1CCn2nc(-c3cc(C(F)(F)F)ncc3Cl)cc21 [Compound I-481b] | 250 to 500
CCc1cc(F)cc(C(=O)N[C@@H]2CCc3nn(-c4ccnc(C(F)(F)F)c4)cc32)c1 [Compound I-127b] | < 250

Other lines, results leading:

IC50 [nM] | SMILES
< 250 | COc1cc(C(=O)N[C@H]2CCCCn3nc(-c4ccnc(C(C)(F)F)c4)cc32)ccn1 [Compound I-273a]
< 250 | CCOc1cc(C(=O)N[C@H]2CCCn3nc(-c4ccnc(C(F)(F)F)c4)cc32)ccn1 [Compound I-282a, (S)-2-Ethoxy-N-(2-(2-(trifluoromethyl)pyridin-4-yl)-4,5,6,7-tetrahydropyrazolo[1,5-a]pyridin-4-yl)isonicotinamide]
< 250 | Cn1nc(C(F)(F)F)nc1C(=O)N[C@H]1CCn2nc(-c3ccnc(C4CC4)c3)cc21 [Compound I-205a, (S)-N-(2-(2-Cyclopropylpyridin-4-yl)-5,6-dihydro-4H-pyrrolo[1,2-b]pyrazol-4-yl)-1-methyl-3-(trifluoromethyl)-1H-1,2,4-triazole-5-carboxamide]
> 1000 | O=C(N[C@H]1CCCn2nc(-c3ccnc(C(F)(F)F)c3)cc21)c1cc2n(n1)CCCO2 [Compound I-413a]
< 250 | O=C(N[C@H]1CCCn2nc(-c3ccnc(C(F)(F)F)c3)cc21)c1cn(C(F)(F)F)nc1C(F)F [Compound I-497a, (S)-3-(Difluoromethyl)-1-(trifluoromethyl)-N-(2-(2-(trifluoromethyl)pyridin-4-yl)-4,5,6,7-tetrahydropyrazolo[1,5-a]pyridin-4-yl)-1H-pyrazole-4-carboxamide]
< 250 | CC(C)Oc1cc(C(=O)N[C@H]2CCn3nc(-c4cc(C(F)(F)F)ncc4F)cc32)ccn1 [Compound I-546a, (S)-N-(2-(5-Fluoro-2-(trifluoromethyl)pyridin-4-yl)-5,6-dihydro-4H-pyrrolo[1,2-b]pyrazol-4-yl)-2-isopropoxyisonicotinamide]
< 250 | O=C(N[C@H]1CCCn2nc(-c3ccnc(C(F)(F)F)c3)cc21)c1ccc(F)c(C(F)(F)F)c1 [Compound I-410a]
< 250 | O=C(N[C@H]1CCn2nc(-c3ccnc(C(F)(F)F)c3)cc21)C12CC(CC(F)(F)F)(C1)C2 [Compound I-583a, (S)-3-(2,2,2-Trifluoroethyl)-N-(2-(2-(trifluoromethyl)pyridin-4-yl)-5,6-dihydro-4H-pyrrolo[1,2-b]pyrazol-4-yl)bicyclo[1.1.1]pentane-1-carboxamide]
< 250 | COc1cc(-c2cc3n(n2)CC[C@@H]3NC(=O)c2cc(C#N)cc(C(F)(F)F)c2)ccn1 [Compound I-285a, (S)-3-Cyano-N-(2-(2-methoxypyridin-4-yl)-5,6-dihydro-4H-pyrrolo[1,2-b]pyrazol-4-yl)-5-(trifluoromethyl)benzamide]
> 1000 | O=C(NC1CCCc2nn(-c3ccnc(C(F)(F)F)c3)cc21)c1ccncc1 (racemic) [Compound I-36, (rac)-N-(2-(2-(Trifluoromethyl)pyridin-4-yl)-4,5,6,7-tetrahydro-2H-indazol-4-yl)isonicotinamide]
< 250 | Cc1cc(C(=O)N[C@H]2CCCn3nc(-c4ccnc(C(F)(F)F)c4)cc32)nc(C2CC2)n1 [Compound I-402a]
< 250 | COc1cc(-c2cc3n(n2)CC[C@@H]3NC(=O)c2cn(C(F)(F)F)nc2C)ccn1 [Compound I-240a, (S)-N-(2-(2-Methoxypyridin-4-yl)-5,6-dihydro-4H-pyrrolo[1,2-b]pyrazol-4-yl)-3-methyl-1-(trifluoromethyl)-1H-pyrazole-4-carboxamide]
< 250 | N#Cc1cccc(C(=O)N[C@H]2CCCn3nc(-c4cc(C(F)(F)F)ncc4F)cc32)c1 [Compound I-302a, (S)-3-Cyano-N-(2-(5-fluoro-2-(trifluoromethyl)pyridin-4-yl)-4,5,6,7-tetrahydropyrazolo[1,5-a]pyridin-4-yl)benzamide]
> 1000 | N#Cc1c(C(=O)N[C@H]2CCCn3nc(-c4ccnc(C(F)(F)F)c4)cc32)ncn1CC(F)(F)F [Compound I-425a]
< 250 | O=C(N[C@H]1CCCn2nc(-c3ccnc(C(F)(F)F)c3)cc21)c1ccc2ccnn2c1 [Compound I-400a]
> 1000 | Cn1nc(C(F)(F)F)cc1C(=O)N[C@H]1CCCc2ncc(-c3ccnc(C(F)(F)F)c3)cc21 [Compound I-383a]

Source: patent US20250313548A1 (Actio Biosciences, Inc., priority 2023, published 2025)
